Experimental data from patent US20050267357A1, “fMRI system for detecting symptoms associated with Attention Deficit Hyperactivity Disorder” (priority 2003, published 2005).

Test system: left insula/frontal operculum of ADHD and control groups
Test: fMRI during N-Back working memory and sustained attention task, on and off medication
Type: in vivo
Settings: 1-B, 2-B and 3-B N-Back conditions, 0.2 mg/kg and 0.4 mg/kg MP compared with placebo
Source text: A General Electric Signa EXCITE 3.0 Tesla MRI scanner is used for implementing the present invention although any of a number of commercial MRI scanners having 3.0 or 1.5 Tesla fields could be used. Typical imaging parameters involve, for example, the acquisition of 36 contiguous axial slices that cover the entire brain (typically 4 mm thick) using a blipped gradient-echo, echoplanar pulse sequence (echo time (TE)=25 msec; interscan period (TR)=[…]; field of view (FOV)=24 cm; 64×64 voxel matrix; 3.75 mm.×3.75 mm in-plane resolution). High resolution (124 axial slices) spoiled GRASS (gradient-recalled at steady-state) anatomic images [TE=3.9 ms; TR (repetition time)=9.5 ms, 120 flip angle, NEX (number of excitations)=1, slice thickness=1.0 mm, FOV=24 cm, matrix size=256×224] are acquired prior to functional imaging for anatomical localization of functional activation and co-registration. Stimulus presentation and general communication to the patient in the MR scanner is accomplished with stereo audio headphones and computer generated images fed into a digital LCD projector which are back projected to the subject and viewed by the patient through prismatic glasses. Subject responses are recorded on a small hand held keyboard or response device including multiple response buttons. […]

COC(=O)C(c1ccccc1)C1CCCCN1 (stereo not shown) [MP, Methylphenidate]
Group differences (ADHD vs control) in brain activation (percent MR signal intensity): tended to disappear
